Measured values taken from patent US20220023216A1, “INSTANTLY SOLUBLE PARTICLE AND METHOD FOR PRODUCING THE SAME” (RICOH COMPANY, LTD., priority 2019, published 2022).
Values after ≈ are worked out from the molar mass of the structure shown. Blank lines part the entries; values can stand above or below the molecule they belong to.

Legend:
Type in all cases: physicochemical
[1] = Solubility of the poorly water-soluble (pharmaceutical) compound, Table 1; settings: poorly-water-soluble compound (pharmaceutical compound) itself
[2] = Dissolution test of Test Example 3 (ibuprofen, physiological saline); settings: physiological saline 100 mL, 25 degrees, 50 rpm
Description: Then, an amount of the pharmaceutical agent dissolved over time was quantified through liquid chromatography (detector: UV/Vis detector).

[3] = Dissolution test of Test Example 1 (erlotinib, physiological saline); settings: physiological saline 100 mL, 25 degrees Celsius, 50 rpm
Procedure: (§1) An active pharmaceutical ingredient of erlotinib (1.6 mg) and the particle 9 (16 mg) obtained in Example 9 were each added to a physiological saline solution (0.9 w/v %) (100 mL) as a solvent, and were dissolved for 30 minutes under the following conditions: a temperature of the solution: 25 degrees Celsius; and a stirring rate: 50 rpm. Then, an amount of the pharmaceutical agent dissolved over time was quantified through liquid chromatography (detector: UV/Vis detector).

[4] = Dissolution test of Test Example 2 (imatinib, water); settings: water 100 mL, 25 degrees Celsius, 50 rpm
Procedure: as §1, with “imatinib (7.35” for “erlotinib (1.6”, “10 (73.5” for “9 (16”, “10” for “9”, “water” for “a physiological saline solution (0.9 w/v %)”, “mL),” for “mL) as a solvent,”

- solubility [1]: 20 µg/mL (≈ 97 µM)
- Dissolution amount ([2]; 2 min): Not detected
- Dissolution amount ([2]; 5 min): Not detected
- Dissolution amount ([2]; 15 min): 5.4 mg/mL
- Dissolution amount ([2]; 30 min): 9.7 mg/mL
Structure (SMILES): CC(C)Cc1ccc(C(C)C(=O)O)cc1 (stereo not drawn) [Ibuprofen, ibuprofen]

- Dissolution amount ([3]; 1 min): Not detected
- Dissolution amount ([3]; 3 min): 0.8 mg/mL
- Dissolution amount ([3]; 5 min): 1 mg/mL
- Dissolution amount ([3]; 15 min): 1.1 mg/mL
- Dissolution amount ([3]; 30 min): 2 mg/mL
Structure (SMILES): C#Cc1cccc(Nc2ncnc3cc(OCCOC)c(OCCOC)cc23)c1 [Erlotinib, erlotinib]

- Dissolution amount ([4]; 1 min): 9.7 mg/mL
- Dissolution amount ([4]; 3 min): 13.4 mg/mL
- Dissolution amount ([4]; 5 min): 18 mg/mL
- Dissolution amount ([4]; 15 min): 19.8 mg/mL
- Dissolution amount ([4]; 30 min): 13.7 mg/mL
Structure (SMILES): Cc1ccc(NC(=O)c2ccc(CN3CCN(C)CC3)cc2)cc1Nc1nccc(-c2cccnc2)n1 [Imatinib, imatinib]
